Assay results: patent publication US6534282B2, “Detection of hypertension using immunoreactive metabolic products” (priority 1999, dated 2003)

Key:
[1] = tested on: anti-14,15-DHET IgG; assay: Specificity of the 14,15-DHET competitive ELISA (eicosanoid panel); format: binding, goat; conditions: for cross-reaction with anti-14,15-DHET / cross-reaction with anti-14,15-DHET (in words): 14,15-DHET ELISA; for cross-reactivity relative to 14,15-DHET: competition with 14,15-DHET for anti-14,15-DHET IgG in ELISA
Procedure: Synthetic 14, 15- or 8,9-DHETs were coupled to KLH using dicyclohexylcarbodiimide as previously described (25). The conjugate was used to immunize a goat and antibody titers were determined by ELISA using DHET-conjugated bovine serum albumin (BSA).
High-binding microplates were coated with protein G-purified IgG suspended in 1M carbonate, pH 9.0, (1 μg/well; 200 μl/well final volume) and then covered with paraflim. After overnight incubation at room temperature, the wells were gently washed five times with tris buffered saline (TBS), pH 7.5, containing 0.1% tween. Non-specific sites were blocked by the addition of 0.2 ml of 5% (w/v) nonfat dry milk in TBS. After two hours of incubation at room temperature, they were washed three times with TBS-tween. One μg/well of purified IgG was sufficient for quantitation of 0.5 to 100 pg/well of 14,15- or 8,9-DHETs. Samples and standards (150 μL) were added and the plates incubated for 20 minutes, after which 15 ng of the DHET-HRP conjugate was added in 50 μL of TBS. Following incubation for one hour to permit competitive binding to bound antibody, unbound material was removed by thorough washing of the wells with TBS-tween, and 150 μL of a colorimetric substrate for HRP [3,3′,5,5′ tetramethylbenzidine (TMB) and hydrogen peroxide] (Sigma Co.) was added. The plate is then incubated for 20 minutes, the reaction stopped by addition of 75 μL of 1N H2SO4, and the absorbance at 450 nm was determined using a microtiter plate reader. Under these assay conditions, the amount of color in a well is inversely proportional to the initial concentration of the sample or a standard ligand.
The specificity of the 14,15-DHET ELISA was investigated using authentic DHET and a panel of eicosanoids (Table 5) which, based on their structure, might be anticipated to compete with 14,15-DHET for binding to antibodies against 14,15-DHET. […] There was a slight cross-reaction with 8,9- and 11,12-DHET (3.3% for both).
A listing of the panel of eicosanoids used to analyze the specificity of the 14,15-DHET ELISA. These eicosanoids were selected based on the similarity of their structure to 14,15-DHET, as being anticipated to potentially compete with 14,15-DHET for binding to anti-14,15-DHET and thus interfere with such assays.

[2] = tested on: AA epoxygenase; conditions: rats; cited from earlier work
[3] = tested on: CYP2C23; assay: Western blot of hepatic microsomes for CYP2C23; format: in vivo, rat; conditions: after 4 days of treatment, 10 mg/kg/day i.p., FIG. 4
Procedure: (§1) Male and female Sprague-Dawley (SD) rats (160-200 g) were purchased from Charles River Laboratories (Wilmington, Mass.) and housed in a controlled environment and fed standard laboratory chow for at least 3 days before use.
SDS-PAGE was carried out on 10% acrylamide gel. The separated proteins were electroblotted onto cellulose membrane and Western blot analyses were carried out using alkaline phosphatase system as previously described (29). Visualization of P450 bands was accomplished by incubation with a mixture of 5-bromo4-chloro-3-indolylphosphatate p-toluidine and nitrobluetetrazolium.

[4] = tested on: AA epoxygenase; assay: AA oxygenase activity assay of hepatic microsomes using 14C AA, from treated rats; format: in vivo, rat; conditions: hepatic microsomes of rats treated i.p. 10 mg/kg/d for 4 days; incubation 10 min
Procedure: as §1
Microsomes were prepared from rat livers and kidneys as described previously (27,28). Microsomes were stored at −80° C. in 50 mM Tris acetate buffer, pH 7.4, containing 1 mM EDTA and 20% glycerol until use.
After incubation of the microsomes (1 mg protein/ml, final concentration), 0.05 M Tris-HCl buffer, pH 7.5, containing 0.15 m KCl, 10 mM MgC12, 8 mM sodium isocitrate and 0.5 IU of isocitrate dehydrogenase and, incubated with ^14C AA (1 μCi/μmol, 100 μM, final concentration) in the presence of 1 mM NADPH at 30° C. The reaction products were taken at five and ten minutes and extracted into ethyl ether containing 0.05% acetic acid. The AA oxygenase metabolites were separated by HPLC and quantitated by a radiomatic Flo-One β-detector.
The reaction products were taken at 5 and 10 min. and extracted into ethyl ether containing 0.05% acetic acid). The AA oxygenase metabolites were separated by HPLC and quantitated by a radiomatic Flo-One B-detector.

SMILES | cross-reactivity relative to 14,15-DHET [1] | cross-reaction with anti-14,15-DHET (in words) [1] | other results
CCCCCC=CCC=CCC(O)C(O)CC=CCCCC(=O)O (stereo not shown) [8,9-DHET, 8,9-dihydroxyeicosatrienoic acid] | 3.30% | – | cross-reaction with anti-14,15-DHET [1]: 3.3%
CCCCC/C=C\C/C=C\CC1OC1C/C=C\CCCC(=O)O (stereo not shown) [8,9-EET] | 0.40% | did not cross-react | –
CCCCCC1OC1C/C=C\C/C=C\C/C=C\CCCC(=O)O (stereo not shown) [14,15-EET] | 1.50% | did not cross-react | –
CCCCC/C=C\C/C=C\C/C=C\CC(O)C(O)CCCC(=O)O (stereo not shown) [5,6-DHET] | 0.02% | did not cross-react | –
CCCCC[C@H](O)/C=C/[C@@H]1[C@@H](CC(=O)CCCCC(=O)O)[C@@H](O)C[C@H]1O [6-keto-PGF1α] | <0.01% | did not cross-react | –
CCCCC[C@H](O)/C=C/C=C\C/C=C\C=C\[C@@H](O)CCCC(=O)O [5(s)15(S)DiHETE] | 0.20% | did not cross-react | –
CCCCC/C=C\C[C@H]1O[C@H]1C/C=C\C/C=C\CCCC(=O)O [11,12-EET] | 0.05% | did not cross-react | –
CCCCCC(O)C(O)CC=CCC=CCC=CCCCC(=O)O (stereo not shown) [14,15-DHET, 14,15-dihydroxyeicosatrienoic acid] | 100.00% | – | –
Clc1ccccc1C(c1ccccc1)(c1ccccc1)n1ccnc1 [clotrimazole] | – | – | blood pressure effect [2]: induced salt-sensitive and clotrimazoledependent hypertension; urinary excretion of Na+, EETs and DHETs [2]: decreased
C[C@@H]1C[C@H]2[C@@H]3CCC4=CC(=O)C=C[C@]4(C)[C@@]3(F)[C@@H](O)C[C@]2(C)[C@@]1(O)C(=O)CO [DEX, dexamethasone] | – | – | hepatic CYP2C23 protein level [3]: decreased dramatically; 11,12-EET formed [4]: 73 ng EET formed/mg protein; 14,15-EET formed [4]: 97 ng EET formed/mg protein
CCCCC/C=C\CC(O)C(O)C/C=C\C/C=C\CCCC(=O)O (stereo not shown) [11,12-DHET] | 3.30% | – | cross-reaction with anti-14,15-DHET [1]: 3.3%
CCCCC/C=C\C/C=C\C/C=C\CC1OC1CCCC(=O)O (stereo not shown) [5,6-EET] | 0.02% | did not cross-react | –

Now from value to compound, other results behind:

cross-reactivity relative to 14,15-DHET [1] | SMILES | cross-reaction with anti-14,15-DHET (in words) [1] | other results
0.02% | CCCCC[C@H](O)/C=C/[C@H]1OC(O)C[C@H](O)[C@@H]1C/C=C\CCCC(=O)O (stereo partly shown) [Thromboxane B2] | did not cross-react | –
<0.01% | CCCCC[C@H](O)/C=C/[C@H]1[C@H](O)CC(=O)[C@@H]1C/C=C\CCCC(=O)O [PGE2] | did not cross-react | –
1.00% | CCCCC[C@H](O)/C=C/C=C\C/C=C\C/C=C\CCCC(=O)O [15(S)HETE] | did not cross-react | –
0.05% | CCCCC/C=C\C/C=C\C/C=C\C/C=C\CCCC(=O)O [arachidonic acid] | did not cross-react | –
<0.01% | CCCCC[C@H](O)/C=C/[C@@H]1[C@@H](C/C=C\CCCC(=O)O)[C@@H](O)C[C@H]1O [PGF2α] | did not cross-react | –
